Results on 16 molecules are retold here after US11999727B2 (Tango Therapeutics, Inc., priority 2020, dated 2024).

In assay [1] the test system is HAP1 MTAP-deleted cell line. The assay can be described thus: Viability assay, MTAP-deleted cell line. In kind it is cell-based. As to conditions: Homo sapiens, read-out: HAP1 MTAP deleted viability. From the text: Table 1 additionally indicates IC50 values in a viability assay for the MTAP-deleted cell line (column 10), indicating the effect of treatment with compound on cell survival.

Assay [2] deals with T1, PRMT5 (Homo sapiens, UniProt O14744).
T1 construct: purchased Viva (custom protein)
T1 sequence (O14744 whole entry): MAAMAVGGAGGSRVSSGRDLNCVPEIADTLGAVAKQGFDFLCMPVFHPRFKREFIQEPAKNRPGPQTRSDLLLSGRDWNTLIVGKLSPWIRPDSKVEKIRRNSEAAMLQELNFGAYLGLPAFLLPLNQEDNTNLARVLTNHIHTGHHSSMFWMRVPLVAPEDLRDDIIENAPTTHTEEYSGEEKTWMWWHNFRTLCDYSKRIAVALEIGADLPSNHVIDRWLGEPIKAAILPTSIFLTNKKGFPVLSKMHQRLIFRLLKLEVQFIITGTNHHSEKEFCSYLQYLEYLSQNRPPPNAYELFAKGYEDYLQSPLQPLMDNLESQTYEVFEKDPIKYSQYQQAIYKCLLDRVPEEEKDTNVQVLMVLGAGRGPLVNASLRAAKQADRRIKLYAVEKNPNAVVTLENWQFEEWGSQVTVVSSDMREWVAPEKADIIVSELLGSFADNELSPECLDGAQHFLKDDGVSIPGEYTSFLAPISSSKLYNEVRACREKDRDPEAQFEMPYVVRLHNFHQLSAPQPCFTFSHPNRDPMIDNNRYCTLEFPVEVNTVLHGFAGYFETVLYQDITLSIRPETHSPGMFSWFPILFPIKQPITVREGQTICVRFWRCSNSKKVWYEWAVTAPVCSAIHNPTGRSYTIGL
T1 sequence (Q9BQA1 whole entry partner): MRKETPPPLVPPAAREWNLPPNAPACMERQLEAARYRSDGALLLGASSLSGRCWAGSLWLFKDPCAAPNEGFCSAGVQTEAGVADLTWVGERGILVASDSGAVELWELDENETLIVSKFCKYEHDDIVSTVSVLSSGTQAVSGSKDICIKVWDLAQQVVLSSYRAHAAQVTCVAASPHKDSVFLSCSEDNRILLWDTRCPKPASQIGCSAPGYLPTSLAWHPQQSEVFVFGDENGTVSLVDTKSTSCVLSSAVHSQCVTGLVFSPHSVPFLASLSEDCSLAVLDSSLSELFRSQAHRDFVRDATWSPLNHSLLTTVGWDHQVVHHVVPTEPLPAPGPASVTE
Description: PRMT5 biochemical IC50 assay with no cofactor. As to conditions: PRMT5, no cofactor. From the text: Table 1 indicates IC50 values (μM) against PRMT5 for exemplary compounds in the presence of SAM as cofactor, with no cofactor, and with MTA as cofactor, respectively (columns 4-6). […] Ki values can be calculated from the IC50 values as described in the Examples section. As detailed in the Examples section, for the assay performed in the presence of SAM, IC50=Ki×1.5 (Ki=IC50/1.5).

For assay [3], the target named is T1, PRMT5. Description: PRMT5 biochemical IC50 assay with MTA as cofactor. As to conditions: PRMT5, MTA as cofactor; read-out: MTA IC50.
The target of assay [4] is T1, PRMT5. Description: PRMT5 biochemical IC50 assay with SAM as cofactor. The conditions noted are these: PRMT5, SAM as cofactor; read-out: SAM IC50.
For assay [5], the system named is HAP1 MTAP-deleted cell line. The assay can be described thus: SDMA in-cell western assay, HAP1 MTAP-deleted. In kind it is cell-based. The conditions noted are these: for IC50: Homo sapiens, HAP1, SDMA in-cell western, HAP1 MTAP-deleted; for MTAP intact/deleted ratio: SDMA in-cell western. In a few lines: (§1)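 IC50 values come from SDMA signal quantified by in-cell western in two HAP1 lines, one with native MTAP levels and one lacking MTAP.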

In assay [6] the test system is HAP1 MTAP-intact cell line. The assay can be described thus: SDMA in-cell western assay, HAP1 MTAP-intact. The conditions noted are these: Homo sapiens, HAP1, SDMA in-cell western, HAP1 MTAP-intact; read-out: MTAP HAP1 intact IC50. In kind it is cell-based. In a few lines: as §1
Setting [7] is: HAP1, viability, HAP1 MTAP-deleted cell line.
The mark [8] stands for this setting: read-out: No Cofactor/ rel IC50.
The mark [9] stands for this setting: read-out: HAP 1 MTAP deleted IC50.
[10] abbreviates: IC50 ratio HAP1 MTAP-intact / HAP1 MTAP-deleted.
The mark [11] stands for this setting: HAP1, viability assay, MTAP-deleted cell line.
Where [12] appears, read: read-out: HAP1 MTAP deleted IC50.
[13] abbreviates: IC50 ratio HAP1 MTAP-intact vs HAP1 MTAP-deleted.

Structures are written as SMILES. Bounds are passed on as bounds.

For `Cc1cc(NC(=O)C(=O)N2C[C@H](C)CC[C@H]2c2ccc(CCN(C)C)cc2)cnc1N` (single isomer, unassigned) [Compound 1358], the IC50 in assay [1] (setting [7]) is less than 1 µM; on PRMT5 [2] (setting [8]), less than 0.05 µM; on PRMT5 [3] it was less than 0.05 µM; at PRMT5 [4], 0.05 to 0.5 µM; in assay [5] (setting [9]) it was less than 0.1 µM; in assay [6], less than 0.1 µM. Moreover, the “MTAP intact/deleted ratio” value in assay [5] (setting [10]) is reported as “A (an IC50 ratio greater than or equal to 10 fold)”.
As for `CCc1cc(NC(=O)C(=O)N2C[C@@H](C)CC[C@@H]2c2ccc3sc([C@@H](C)N(C)C)nc3c2)cnc1N` (single isomer, unassigned) [Compound 1316], the IC50 in assay [1] (setting [7]) was less than 1 µM; at PRMT5 [2] (setting [8]), less than 0.05 µM; at PRMT5 [3], less than 0.05 µM; on PRMT5 [4], 0.05 to 0.5 µM; in assay [5] (setting [9]), less than 0.1 µM; in assay [6], less than 0.1 µM. Also, in assay [5] (setting [10]), the “MTAP intact/deleted ratio” value is given as “A (an IC50 ratio greater than or equal to 10 fold)”.
Turning to `CC1CCC2CCCCC2N1C(=O)C(=O)Nc1cncc(C(N)=O)c1` (stereo not shown) [Compound 144, 5-[2-(2-Methyl-decahydroquinolin-1-yl)-2-oxoacetamido]pyridine-3-carboxamide], the IC50 in assay [1] (setting [11]) was more than 10 µM; on PRMT5 [2] (setting [8]), 0.05 to 0.5 µM; on PRMT5 [3], less than 0.05 µM; on PRMT5 [4] it was 0.05 to 0.5 µM; in assay [5] (setting [9]), 0.1 to 1 µM; in assay [6], more than 1 µM. Also, the “MTAP intact/deleted ratio” value in assay [5] (setting [10]) is recorded as “A (an IC50 ratio greater than or equal to 10 fold)”.
Turning to `NC(=O)c1cncc(NC(=O)C(=O)N2C[C@H]3CC[C@H](C3)[C@H]2c2ccccc2)c1` (single isomer, unassigned) [Compound 194], the IC50 in assay [1] (setting [11]) is more than 10 µM; on PRMT5 [2] (read-out: No Cofactor/rel IC50), more than 0.5 µM; on PRMT5 [3] it was more than 0.5 µM; on PRMT5 [4] it was more than 0.5 µM; in assay [5] (setting [12]), more than 1 µM; in assay [6] it was more than 1 µM. For the same molecule, the MTAP intact/deleted ratio entry in assay [5] (setting [10]) is given as “C (an IC50 ratio of less than 3 fold)”.
`Cc1cc(NC(=O)C(=O)N2CCCCC2c2cccc3c2ncn3C)cnc1N` (stereo not shown) [Compound 132, N-(6-Amino-5-methyl-3-pyridyl)-2-[2-(1-methylbenzimidazol-4-yl)-1-piperidyl]-2-oxo-acetamide]: the IC50 in assay [1] (setting [11]) was more than 10 µM; at PRMT5 [2] (setting [8]) it was more than 0.5 µM; on PRMT5 [3], 0.05 to 0.5 µM; at PRMT5 [4], more than 0.5 µM; in assay [5] (setting [9]), more than 1 µM; in assay [6] it was more than 1 µM. The “MTAP intact/deleted ratio” value in assay [5] (setting [10]) is on record as “B (an IC50 ratio greater than or equal to 3 fold but lower than 10 fold)”.
With `Cc1cc(NC(=O)C(=O)N2C[C@H](C)CC[C@H]2c2ccc(F)c(F)c2)cnc1N` (single isomer, unassigned) [Compound 458], the IC50 in assay [1] (setting [11]) is 1 to 10 µM; at PRMT5 [2] (read-out: No Cofactor/rel IC50) it was less than 0.05 µM; on PRMT5 [3] it was less than 0.05 µM; on PRMT5 [4], 0.05 to 0.5 µM; in assay [5] (setting [12]), less than 0.1 µM; in assay [6] it was 0.1 to 1 µM. For the same molecule, the MTAP intact/deleted ratio result in assay [5] (setting [10]) is “A (an IC50 ratio greater than or equal to 10 fold)”.
In the case of `COc1ncc(NC(=O)C(=O)N2C[C@@H](C)CC[C@@H]2c2ccc3sc(C4CC(C)(C)N(C)C(C)(C)C4)nc3c2)cc1C(N)=O` (single isomer, unassigned) [Compound 1108], the IC50 in assay [1] (setting [11]) is less than 1 µM; on PRMT5 [2] (read-out: No Cofactor/rel IC50), less than 0.05 µM; on PRMT5 [3], less than 0.05 µM; on PRMT5 [4], less than 0.05 µM; in assay [5] (setting [12]) it was less than 0.1 µM; in assay [6], less than 0.1 µM. Also, in assay [5] (setting [13]), the MTAP intact/deleted ratio result is listed as “A (an IC50 ratio greater than or equal to 10 fold)”.
As to `C[C@@H]1CC[C@@H](c2ccc(F)c(C(F)(F)F)c2)N(C(=O)C(=O)Nc2cncc(C(N)=O)c2)C1` (racemic) [Compound 255, rac-5-{2-[(2R,5S)-2-[4-Fluoro-3-(trifluoromethyl)phenyl]-5-methylpiperidin-1-yl]-2-oxoacetamido}pyridine-3-carboxamide], the IC50 was 1 to 10 µM in assay [1] (setting [11]); 0.05 to 0.5 µM at PRMT5 [2] (read-out: No Cofactor/rel IC50); less than 0.05 µM on PRMT5 [3]; 0.05 to 0.5 µM at PRMT5 [4]; 0.1 to 1 µM in assay [5] (setting [12]); more than 1 µM in assay [6]. In addition, the MTAP intact/deleted ratio result in assay [5] (setting [10]) is recorded as “A (an IC50 ratio greater than or equal to 10 fold)”.
In the case of `Cc1cc(NC(=O)C(=O)N2C[C@H](C)CC[C@H]2[C@H]2CC[C@H](C(C)(C)C)CC2)cnc1N` (single isomer, unassigned) [Compound 260], the IC50 in assay [1] (setting [11]) is 1 to 10 µM; at PRMT5 [2] (read-out: No Cofactor/rel IC50), 0.05 to 0.5 µM; at PRMT5 [3], less than 0.05 µM; at PRMT5 [4], 0.05 to 0.5 µM; in assay [5] (setting [12]), 0.1 to 1 µM; in assay [6], more than 1 µM. Besides, the MTAP intact/deleted ratio entry in assay [5] (setting [10]) is “C (an IC50 ratio of less than 3 fold)”.
As to `CCc1cc(NC(=O)C(=O)N2[C@@H](c3ccc4sc(C5CCN(C)CC5)nc4c3)CCC[C@@H]2C)cnc1N` [Compound 1395], the IC50 was less than 1 µM in assay [1] (setting [7]); less than 0.05 µM on PRMT5 [2] (setting [8]); less than 0.05 µM on PRMT5 [3]; 0.05 to 0.5 µM at PRMT5 [4]; less than 0.1 µM in assay [5] (setting [9]); less than 0.1 µM in assay [6]. Further, the “MTAP intact/deleted ratio” value in assay [5] (setting [10]) is listed as “A (an IC50 ratio greater than or equal to 10 fold)”.
Regarding `C[C@@H]1CN(C(=O)C(=O)Nc2cncc(C(N)=O)c2)[C@@H](c2ccccc2)CC1(F)F` (single isomer, unassigned) [Compound 473], the IC50 was more than 10 µM in assay [1] (setting [11]); more than 0.5 µM on PRMT5 [2] (read-out: No Cofactor/rel IC50); more than 0.5 µM at PRMT5 [3]; more than 0.5 µM at PRMT5 [4]; more than 1 µM in assay [5] (setting [12]); more than 1 µM in assay [6]. Also, in assay [5] (setting [10]), the MTAP intact/deleted ratio entry is given as “C (an IC50 ratio of less than 3 fold)”.
As to `CCC(C)C1CCCCN1C(=O)C(=O)Nc1cnc(N)c(C)c1` (stereo not shown) [Compound 232, N-(6-amino-5-methyl-3-pyridyl)-2-oxo-2-(2-sec-butyl-1-piperidyl)acetamide], the IC50 was more than 10 µM in assay [1] (setting [11]); more than 0.5 µM at PRMT5 [2] (read-out: No Cofactor/rel IC50); 0.05 to 0.5 µM at PRMT5 [3]; more than 0.5 µM on PRMT5 [4]; more than 1 µM in assay [5] (setting [12]); more than 1 µM in assay [6]. For the same molecule, in assay [5] (setting [10]), the MTAP intact/deleted ratio entry is on record as “B (an IC50 ratio greater than or equal to 3 fold but lower than 10 fold)”.
In the case of `CCc1cc(NC(=O)C(=O)N2C[C@@H](C)[C@@H](OC)C[C@@H]2c2cccc(OCCN(C)C)c2)cnc1N` (racemic) [Compound 1139, N-(6-amino-5-ethyl-3-pyridyl)-2-oxo-2-[rac-(2R,4S,5R)-2-[3-[2-(dimethylamino)ethoxy]phenyl]-4-methoxy-5-methyl-1-piperidyl]acetamide], the IC50 in assay [1] (setting [11]) was less than 1 µM; on PRMT5 [2] (read-out: No Cofactor/rel IC50), 0.05 to 0.5 µM; on PRMT5 [3], 0.05 to 0.5 µM; at PRMT5 [4], 0.05 to 0.5 µM; in assay [5] (setting [12]), less than 0.1 µM; in assay [6], less than 0.1 µM. For the same molecule, the MTAP intact/deleted ratio entry in assay [5] (setting [13]) is “B (an IC50 ratio greater than or equal to 3 fold but lower than 10 fold)”.
As to `Cc1cc(NC(=O)C(=O)N2C[C@H](C)CC[C@@H]2C2CCCCC2)cnc1N` (racemic) [Compound 175, N-(6-amino-5-methyl-3-pyridyl)-2-[(2R,5R)-2-cyclohexyl-5-methyl-1-piperidyl]-2-oxo-acetamide], the IC50 in assay [1] (setting [11]) was more than 10 µM; at PRMT5 [2] (read-out: No Cofactor/rel IC50), more than 0.5 µM; on PRMT5 [3], 0.05 to 0.5 µM; on PRMT5 [4], more than 0.5 µM; in assay [5] (setting [12]), more than 1 µM; in assay [6], more than 1 µM. For the same molecule, the MTAP intact/deleted ratio result in assay [5] (setting [10]) is on record as “B (an IC50 ratio greater than or equal to 3 fold but lower than 10 fold)”.
For `CCc1cc(NC(=O)C(=O)N2C[C@H](C)CC[C@H]2c2ccc(NS(C)(=O)=O)cc2)cnc1N` (single isomer, unassigned) [Compound 866], the IC50 in assay [1] (HAP1, viability assay, HAP1 MTAP-deleted) is more than 10 µM; at PRMT5 [2] (read-out: No Cofactor/rel IC50) it was more than 0.5 µM; on PRMT5 [3], more than 0.5 µM; at PRMT5 [4] it was more than 0.5 µM; in assay [5] (setting [12]), more than 1 µM; in assay [6], more than 1 µM. Also, the MTAP intact/deleted ratio entry in assay [5] (setting [10]) was “C (an IC50 ratio of less than 3 fold)”.
On to `CCc1cc(NC(=O)C(=O)N2C[C@@H](C)CC[C@@H]2c2ccc3nn(C4CC(C)(C)N(C)C(C)(C)C4)cc3c2)cnc1N` (racemic) [Compound 1140, N-(6-Amino-5-ethyl-3-pyridyl)-2-oxo-2-[rac-(2R,5S)-5-methyl-2-[2-(1,2,2,6,6-pentamethyl-4-piperidyl)indazol-5-yl]-1-piperidyl]acetamide], for which the IC50 in assay [1] (setting [11]) was less than 1 µM; at PRMT5 [2] (read-out: No Cofactor/rel IC50), less than 0.05 µM; on PRMT5 [3], less than 0.05 µM; at PRMT5 [4], less than 0.05 µM; in assay [5] (setting [12]), less than 0.1 µM; in assay [6], less than 0.1 µM. The MTAP intact/deleted ratio entry in assay [5] (setting [13]) is recorded as “A (an IC50 ratio greater than or equal to 10 fold)”.
